One assay relates to LNCaP. The assay can be described thus: Evaluated for its growth enhancement or mitogenic activity using LNCaP prostate cultures. The assay is classed as functional, Homo sapiens, Prostate gland.
Conditions: not given
`CCCCC/C=C\C/C=C\C/C=C\C=C\C(O)CCCC(=O)N(C)OC` (stereo not given): the Control is reported as 115%.
Consider `CCCCC/C=C\C/C=C\C/C=C\C=C\C(O)CCCC(=O)OC` (stereo not given), for which the Control is 111%.
As for `CCCCC/C=C\C/C=C\C/C=C\C=C\C(CCCC(=O)O)NC` (stereo not given), the Control worked out at 125%.
For the compound `CCCCC/C=C\C/C=C\C/C=C\C=C\C(O)CCCC(=O)O` (stereo not given), the Control amounted to 116%.
The same measure, in the same setting: for `CCCCC/C=C\C/C=C\C/C=C\C=C\C(O)CCCC(=O)NO` (stereo not given) the value was 3%; for `CCCCC/C=C\C/C=C\C/C=C\C=C\C(O)CCCC(=O)NCCO` (stereo not given), 125%; for `CCCCC/C=C\C/C=C\C/C=C\C=C\C1CCCC(=O)N1` (stereo not given), 121%.
For the compound `CCCCC/C=C\C/C=C\C/C=C\C=C\C(O)CCCC(=O)NOC` (stereo not given), the Control was determined as 133%.
Consider `CCCCC/C=C\C/C=C\C/C=C\C/C=C\CCCC(=O)NCCO` [ANANDAMIDE], for which the Control is recorded as 112%.
On the same count and under the same terms, for `CCCCC/C=C\C/C=C\C/C=C\C=C\C(N)CCCC(=O)O` (stereo not given) the value was 116%; for `CCCCC/C=C\C/C=C\C/C=C\C=C\C1CCCC(=O)N1C` (stereo not given), 131%; for `CCCCC/C=C\C/C=C\C/C=C\C=C\C(O)CCCC(=O)N1CCOCC1` (stereo not given), 106%.
As for `CCCCC/C=C\C/C=C\C/C=C\C=C\C(O)CCCC(=O)NC` (stereo not given), the Control is recorded as 108%.
As for `CCCCC/C=C\C/C=C\C/C=C\C=C\C(O)CCCC(=O)N(C)C` (stereo not given), the Control turned out to be 138%.
`CCCCC/C=C\C/C=C\C/C=C\C=C\C(O)CCCC(=O)N1CCCCC1` (stereo not given): the Control is on record as 123%.
As for `CCCCC/C=C\C/C=C\C/C=C\C=C\C(O)CCCC(=O)c1cnccn1` (stereo not given), the Control came out at 113%.
`CCCCC/C=C\C/C=C\C/C=C\C=C\C(O)CCCC(N)=O` (stereo not given): the Control stood at 108%.
Take `CCCCC/C=C\C/C=C\C/C=C\C=C\C(O)CCCC(=O)NN` (stereo not given): the Control is 60%.
Take `CCCCC/C=C\C/C=C\C/C=C\C=C\C(O)CCCC(=O)NCCCN` (stereo not given): the Control stood at 116%.

A further assay concerns LNCaP. Briefly: Evaluated for its growth enhancement or mitogenic activity using LNCaP prostate cultures. The class given is functional, cell-based. The following applies: Homo sapiens, Prostate gland.
In the case of `CCCCCCCC/C=C\CCCCCCCC(=O)NCCO`, the Control entry is “No effect”.
